The text below walks through data of US12649750B2, “Macrocyclic compounds, compositions, and methods of using thereof” (Sionna Therapeutics Inc., priority 2022, dated 2026).

One experiment has as its target T1, CFTR (Homo sapiens, UniProt P13569, DEL508-508).
T1 construct: Primary human bronchial epithelial cells from a ΔF508 homozygous CF donor; host or cells: primary human bronchial epithelial cells (CF-HBE), ΔF508 homozygous donor
Briefly: TECC24 AUC fold over DMSO @10 μM, CFTR-mediated transepithelial chloride transport in CF-HBE cells. Format: cell-based. The conditions noted are these: test agent AUC divided by DMSO vehicle AUC, primary CF-HBE cells, ΔF508 homozygous donor, 48 hours incubation. The method, boiled down:
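ΔF508-homozygous primary bronchial epithelial cells incubated 48 h at 36.5° C with compound (10 μM) in IL-13-containing medium, then TECC24 current-clamp recording in pH 7.4 Hepes saline with benzamil 10 μM, forskolin 10 μM, then CFTR inhibitor-172 20 μM. Equivalent Cl− current AUC between forskolin and inhibitor, expressed as fold over DMSO.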

A further experiment addresses T2, NBD1 (Homo sapiens, UniProt P13569).
T2 construct: Purified recombinant NBD1 was produced using previously described methods; made in house
Briefly: Aggregation analysis using differential static light scattering (DSLS), thermal stability of NBD1 (ΔTagg). Format: binding. The conditions noted are these: ΔTagg versus DMSO control, NBD1 0.2 mg/ml. In outline:
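Purified recombinant NBD1 at 0.2 mg/ml in Tris buffer pH7.6 with 2 mM ATP, 5 mM MgCl2, 2 mM DTT and 1% glycerol was mixed with DMSO-dissolved compounds under mineral oil. Plates were heated at 1° C. per minute to 70° C., light scattering imaged every 0.5° C.; Tagg from curve inflection, minus DMSO-control mean.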

T2 sequence (P13569 423-646 limits assumed): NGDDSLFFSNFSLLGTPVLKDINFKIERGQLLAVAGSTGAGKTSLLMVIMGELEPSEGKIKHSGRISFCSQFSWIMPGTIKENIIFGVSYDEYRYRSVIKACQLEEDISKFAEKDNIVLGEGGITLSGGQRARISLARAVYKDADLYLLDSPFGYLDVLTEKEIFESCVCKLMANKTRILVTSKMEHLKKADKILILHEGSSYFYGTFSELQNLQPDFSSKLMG
T1 sequence (P13569 with tags, fused parts or gaps DEL508-508): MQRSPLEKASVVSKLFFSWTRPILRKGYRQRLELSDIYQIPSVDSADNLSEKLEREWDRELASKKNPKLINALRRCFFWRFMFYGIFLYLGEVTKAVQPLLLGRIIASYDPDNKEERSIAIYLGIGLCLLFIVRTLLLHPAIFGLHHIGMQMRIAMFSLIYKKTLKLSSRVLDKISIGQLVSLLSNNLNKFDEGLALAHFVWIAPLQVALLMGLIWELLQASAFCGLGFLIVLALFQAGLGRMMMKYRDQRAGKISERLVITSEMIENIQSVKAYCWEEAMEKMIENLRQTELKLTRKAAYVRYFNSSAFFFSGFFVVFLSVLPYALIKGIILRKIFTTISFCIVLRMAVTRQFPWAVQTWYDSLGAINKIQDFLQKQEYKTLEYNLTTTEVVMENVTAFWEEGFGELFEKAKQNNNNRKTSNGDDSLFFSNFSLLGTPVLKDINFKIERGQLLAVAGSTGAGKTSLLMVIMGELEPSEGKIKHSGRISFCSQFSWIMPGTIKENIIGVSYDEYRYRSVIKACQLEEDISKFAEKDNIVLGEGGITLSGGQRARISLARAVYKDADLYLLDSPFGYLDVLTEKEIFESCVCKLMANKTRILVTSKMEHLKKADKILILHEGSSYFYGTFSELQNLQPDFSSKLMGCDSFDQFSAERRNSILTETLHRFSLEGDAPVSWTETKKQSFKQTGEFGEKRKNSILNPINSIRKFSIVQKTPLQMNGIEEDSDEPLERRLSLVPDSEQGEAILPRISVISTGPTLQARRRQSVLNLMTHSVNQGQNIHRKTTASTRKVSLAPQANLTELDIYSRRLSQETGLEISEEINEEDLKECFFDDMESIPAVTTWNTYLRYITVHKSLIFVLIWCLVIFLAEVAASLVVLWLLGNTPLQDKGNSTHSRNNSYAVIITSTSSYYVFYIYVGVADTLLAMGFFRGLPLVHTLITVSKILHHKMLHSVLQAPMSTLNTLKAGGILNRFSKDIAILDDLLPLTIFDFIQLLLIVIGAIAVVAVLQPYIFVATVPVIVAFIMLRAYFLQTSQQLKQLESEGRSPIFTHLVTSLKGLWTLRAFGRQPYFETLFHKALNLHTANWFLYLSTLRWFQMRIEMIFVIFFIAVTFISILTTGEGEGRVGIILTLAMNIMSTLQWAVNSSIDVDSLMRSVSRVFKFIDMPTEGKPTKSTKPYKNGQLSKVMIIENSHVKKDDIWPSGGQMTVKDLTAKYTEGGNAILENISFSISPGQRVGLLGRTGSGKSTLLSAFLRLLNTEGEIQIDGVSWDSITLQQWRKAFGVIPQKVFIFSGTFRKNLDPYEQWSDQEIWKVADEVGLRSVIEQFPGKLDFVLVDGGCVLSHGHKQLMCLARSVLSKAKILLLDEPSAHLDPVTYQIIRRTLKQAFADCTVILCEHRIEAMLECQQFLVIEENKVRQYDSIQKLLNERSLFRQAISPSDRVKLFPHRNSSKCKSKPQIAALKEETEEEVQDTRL

Take `CC1(C)CS(=O)(=O)CCc2c(c(F)cc3[nH]ccc23)Oc2ccc(F)c(c2)-c2ccn(n2)C(c2cccc(CCC(=O)O)c2)CCO1` (single isomer, unassigned) [Compound 87B, 3-[3-(22,28-difluoro-10,10-dimethyl-12,12-dioxo-9,24-dioxa-12lambda6-thia-5,19,30-triazapentacyclo[23.3.1.12,5.015,23.016,20]-triaconta-1(29),2(30),3,15,17,20,22,25,27-nonaen-6-yl)phenyl]propanoic acid]: the “TECC (AUC, 10 μM)” value on CFTR was “A (a TECC value less than 12 is marked “A”)”. Moreover, the “DSLS 3D (100 μM ΔT)” value on NBD1 is “C (a value greater than 10 °C and less than or equal to 25 °C is marked “C”)”.

Consider `CCn1nc2nc1-c1cc(ccc1F)Oc1c(F)cc3[nH]ccc3c1CCS(=O)(=O)CC(C)(C)CCCC2(C)c1cccc(CCC(=O)O)c1` (single isomer, unassigned) [Compound 91A, 3-[3-(3-ethyl-22,28-difluoro-6,10,10-trimethyl-12,12-dioxo-24-oxa-12lambda6-thia-3,4,19,30-tetrazapentacyclo[23.3.1.12,5.015,23.016,20]triaconta-1(29),2(30),4,15,17,20,22,25,27-nonaen-6-yl)phenyl]propanoic Acid], for which the “TECC (AUC, 10 μM)” value at CFTR is “A (a TECC value less than 12 is marked “A”)”. Moreover, the “DSLS 3D (100 μM ΔT)” value on NBD1 was “C (a value greater than 10 °C and less than or equal to 25 °C is marked “C”)”.

On to `CCn1nc2nc1-c1cc(ccc1F)Oc1c(F)cc3[nH]ccc3c1CCS(=O)(=O)CC(C)(C)CCCC2(C)c1cccc(CCC(=O)O)c1` (single isomer, unassigned) [Compound 91B, 3-[3-(3-ethyl-22,28-difluoro-6,10,10-trimethyl-12,12-dioxo-24-oxa-12lambda6-thia-3,4,19,30-tetrazapentacyclo[23.3.1.12,5.015,23.016,20]triaconta-1(29),2(30),4,15,17,20,22,25,27-nonaen-6-yl)phenyl]propanoic Acid], for which the “TECC (AUC, 10 μM)” value at CFTR is given as “A (a TECC value less than 12 is marked “A”)”. On NBD1, the “DSLS 3D (100 μM ΔT)” value is “A (an ΔTagg value less than or equal to 5 °C is marked “A”)”.

On to `Cn1nc2nc1-c1cccc(c1)Oc1c(F)cc3[nH]ccc3c1CCS(=O)(=O)CC(C)(C)CCCC2(C)c1cccc(CCC(=O)O)c1` (single isomer, unassigned) [Compound 95A, 3-[3-(22-fluoro-3,6,10,10-tetramethyl-12,12-dioxo-24-oxa-12λ6-thia-3,4,19,30-tetrazapentacyclo[23.3.1.12,5.015,23.016,20]triaconta-1(29),2(30),4,15,17,20,22,25,27-nonaen-6-yl)phenyl]propanoic Acid], for which the “TECC (AUC, 10 μM)” value on CFTR is “A (a TECC value less than 12 is marked “A”)”. Further, on NBD1, the “DSLS 3D (100 μM ΔT)” value is “A (an ΔTagg value less than or equal to 5 °C is marked “A”)”.

In the case of `Cn1nc2nc1-c1cccc(c1)Oc1c(F)cc3[nH]ccc3c1CCS(=O)(=O)CC(C)(C)CCCC2(C)c1cccc(CCC(=O)O)c1` (single isomer, unassigned) [Compound 95B, 3-[3-(22-fluoro-3,6,10,10-tetramethyl-12,12-dioxo-24-oxa-12λ6-thia-3,4,19,30-tetrazapentacyclo[23.3.1.12,5.015,23.016,20]triaconta-1(29),2(30),4,15,17,20,22,25,27-nonaen-6-yl)phenyl]propanoic Acid], the “TECC (AUC, 10 μM)” value at CFTR is “A (a TECC value less than 12 is marked “A”)”. In addition, the “DSLS 3D (100 μM ΔT)” value at NBD1 was “C (a value greater than 10 °C and less than or equal to 25 °C is marked “C”)”.

`[2H]C([2H])([2H])C1(c2cccc(CCC(=O)O)c2)CCCC(C)(C)CS(=O)(=O)CCc2c(c(F)cc3[nH]ccc23)Oc2ccc(F)c(c2)-c2nc1nn2C` (single isomer, unassigned) [Compound 96A, 3-[3-[22,28-difluoro-3,10,10-trimethyl-12,12-dioxo-6-(trideuteriomethyl)-24-oxa-12lambda6-thia-3,4,19,30-tetrazapentacyclo-[23.3.1.12,5.015,23.016,20]triaconta-1(29),2(30),4,15,17,20,22,25,27-nonaen-6-yl]phenyl]propanoic Acid]: the “TECC (AUC, 10 μM)” value on CFTR is on record as “A (a TECC value less than 12 is marked “A”)”. At NBD1, the “DSLS 3D (100 μM ΔT)” value is “C (a value greater than 10 °C and less than or equal to 25 °C is marked “C”)”.

On to `[2H]C([2H])([2H])C1(c2cccc(CCC(=O)O)c2)CCCC(C)(C)CS(=O)(=O)CCc2c(c(F)cc3[nH]ccc23)Oc2ccc(F)c(c2)-c2nc1nn2C` (single isomer, unassigned) [Compound 96B, 3-[3-[22,28-difluoro-3,10,10-trimethyl-12,12-dioxo-6-(trideuteriomethyl)-24-oxa-12lambda6-thia-3,4,19,30-tetrazapentacyclo-[23.3.1.12,5.015,23.016,20]triaconta-1(29),2(30),4,15,17,20,22,25,27-nonaen-6-yl]phenyl]propanoic Acid], for which the “TECC (AUC, 10 μM)” value on CFTR is recorded as “A (a TECC value less than 12 is marked “A”)”. In addition, at NBD1, the “DSLS 3D (100 μM ΔT)” value was “A (an ΔTagg value less than or equal to 5 °C is marked “A”)”.

Turning to `Cn1nc2nc1-c1cc(ccc1F)Oc1c(F)cc3[nH]ccc3c1CCS(=O)(=O)CC(C)(C)CCCC2(C)c1cccc(CC(O)CO)c1` (single isomer, unassigned) [Compound 97A, 3-[3-(22,28-difluoro-3,6,10,10-tetramethyl-12,12-dioxo-24-oxa-12λ6-thia-3,4,19,30-tetrazapentacyclo[23.3.1.12,5.015,23.016,20]triaconta-1(29),2(30),4,15,17,20,22,25,27-nonaen-6-yl)phenyl]propane-1,2-diol], the “TECC (AUC, 10 μM)” value at CFTR is on record as “A (a TECC value less than 12 is marked “A”)”. Moreover, the “DSLS 3D (100 μM ΔT)” value at NBD1 was “C (a value greater than 10 °C and less than or equal to 25 °C is marked “C”)”.

Turning to `Cn1nc2nc1-c1cc(ccc1F)Oc1c(F)cc3[nH]ccc3c1CCS(=O)(=O)CC(C)(C)CCCC2(C)c1cccc(CC(O)CO)c1` (single isomer, unassigned) [Compound 97B, 3-[3-(22,28-difluoro-3,6,10,10-tetramethyl-12,12-dioxo-24-oxa-12λ6-thia-3,4,19,30-tetrazapentacyclo[23.3.1.12,5.015,23.016,20]triaconta-1(29),2(30),4,15,17,20,22,25,27-nonaen-6-yl)phenyl]propane-1,2-diol], at CFTR, the “TECC (AUC, 10 μM)” value is listed as “A (a TECC value less than 12 is marked “A”)”. Moreover, the “DSLS 3D (100 μM ΔT)” value on NBD1 was “A (an ΔTagg value less than or equal to 5 °C is marked “A”)”.

For `[2H]C([2H])([2H])C1(c2cccc(CCC(=O)O)c2)CCCC(C([2H])([2H])[2H])(C([2H])([2H])[2H])CS(=O)(=O)CCc2c(c(F)cc3[nH]ccc23)Oc2ccc(F)c(c2)-c2nc1nn2C` (single isomer, unassigned) [Compound 98A, 3-[3-[22,28-difluoro-3-methyl-12,12-dioxo-6,10,10-tris(trideuteriomethyl)-24-oxa-12lambda6-thia-3,4,19,30-tetrazapentacyclo-[23.3.1.12,5.015,23.016,20]triaconta-1(29),2(30),4,15,17,20,22,25,27-nonaen-6-yl]phenyl]propanoic acid], the “TECC (AUC, 10 μM)” value on CFTR is given as “B (a value between 12-20 is marked “B”)”. Besides, the “DSLS 3D (100 μM ΔT)” value on NBD1 is “C (a value greater than 10 °C and less than or equal to 25 °C is marked “C”)”.

Consider `[2H]C([2H])([2H])C1(c2cccc(CCC(=O)O)c2)CCCC(C([2H])([2H])[2H])(C([2H])([2H])[2H])CS(=O)(=O)CCc2c(c(F)cc3[nH]ccc23)Oc2ccc(F)c(c2)-c2nc1nn2C` (single isomer, unassigned) [Compound 98B, 3-[3-[22,28-difluoro-3-methyl-12,12-dioxo-6,10,10-tris(trideuteriomethyl)-24-oxa-12lambda6-thia-3,4,19,30-tetrazapentacyclo-[23.3.1.12,5.015,23.016,20]triaconta-1(29),2(30),4,15,17,20,22,25,27-nonaen-6-yl]phenyl]propanoic acid], for which, at CFTR, the “TECC (AUC, 10 μM)” value is “C (a value between 20 and 80 is marked “C”)”. In addition, at NBD1, the “DSLS 3D (100 μM ΔT)” value is “C (a value greater than 10 °C and less than or equal to 25 °C is marked “C”)”.

Turning to `Cn1nc2nc1-c1cc(ccc1F)Oc1c(F)cc3[nH]ccc3c1Cc1ccn(n1)CCS(=O)(=O)CCC2(C)c1cccc(CCC(=O)O)c1` (single isomer, unassigned) [Compound 100A, 3-[3-(24,30-difluoro-3,6-dimethyl-9,9-dioxo-26-oxa-9λ6-thia-3,4,12,21,32,33-hexazahexacyclo[25.3.1.12,5.112,15.017,25.018,22]tritriaconta-1(31),2(33),4,13,15(32),17,19,22,24,27,29-undecaen-6-yl)phenyl]propanoic Acid], the “TECC (AUC, 10 μM)” value at CFTR is listed as “A (a TECC value less than 12 is marked “A”)”. On NBD1, the “DSLS 3D (100 μM ΔT)” value is “C (a value greater than 10 °C and less than or equal to 25 °C is marked “C”)”.

Consider `Cn1nc2nc1-c1cc(ccc1F)Oc1c(F)cc3[nH]ccc3c1Cc1ccn(n1)CCS(=O)(=O)CCC2(C)c1cccc(CCC(=O)O)c1` (single isomer, unassigned) [Compound 100B, 3-[3-(24,30-difluoro-3,6-dimethyl-9,9-dioxo-26-oxa-9λ6-thia-3,4,12,21,32,33-hexazahexacyclo[25.3.1.12,5.112,15.017,25.018,22]tritriaconta-1(31),2(33),4,13,15(32),17,19,22,24,27,29-undecaen-6-yl)phenyl]propanoic Acid], for which the “TECC (AUC, 10 μM)” value on CFTR is reported as “A (a TECC value less than 12 is marked “A”)”. Also, at NBD1, the “DSLS 3D (100 μM ΔT)” value is “A (an ΔTagg value less than or equal to 5 °C is marked “A”)”.
